Common to all, as to format: cell-based
For data set [1], the system named is human keratinocytes cell line (HaCaT cells). The experiment in a line: In vitro cytotoxicity, MTS assay. The conditions noted are these: 2 h. The protocol: Compounds 144, 148, 149, 151, 155, and 158 were assayed (at concentrations of 16, 32, and 64 μg/mL) against a human keratinocytes cell line (HaCaT cells) to determine their in vitro potential toxic effect. Briefly, cells were cultured in Dulbecco's Modified Eagle Medium (DMEM) supplemented with 10% fetal bovine serum (FBS) and penicillin-streptomycin at 37° C. in presence of 5% CO2. Compounds were added in the first row of the 96-well plate. Control cells received DMSO alone at a concentration equivalent to that in drug-treated wells. The cells were incubated with the compounds (in triplicate) in a 96-well plate at 37° C. in presence of 5% CO2 for two hours. The assay reagent MTS 3-(4,5-dimethylthiazol-2-yl)-5-(3-carboxymethoxyphenyl)-2-(4-sulfophenyl)-2H-tetrazolium) (Promega, Madison, Wis., USA) was subsequently added and the plate was incubated for three to four hours. Absorbance readings (at OD490) were recorded using a kinetic microplate reader (Molecular Devices, Sunnyvale, Calif., USA). The quantity of viable cells after treatment with each compound was expressed as a percentage of the viability to DMSO-treated control cells (average of triplicate wells±standard deviation).
FIG. 2. Analyzing the toxicity of compounds 144, 148, 149, 151, 155 and 158 (tested in triplicates at 16, 32 and 64 μg/mL) against human keratinocytes cells (HaCaT) using the MTS 3-(4,5-dimethylthiazol-2-yl)-5-(3-carboxymethoxyphenyl)-2-(4-sulfophenyl)-2H-tetrazolium) assay. Results are presented as percent viable cells relative to DMSO (negative control to determine a baseline measurement for the cytotoxic impact of each compound). The absorbance values represent an average of three samples analyzed for each compound. Error bars represent standard deviation values. The data were analyzed via a two-way ANOVA with post-hoc Dunnett's test for multiple comparisons. An asterisk (*) denotes statistical significance (P<0.05) between results for compounds and DMSO.

Data set [2] concerns Staphylococcus aureus NRS384 (MRSA USA300). The data set can be described thus: Initial MIC screening, broth microdilution (CLSI). As to conditions: for MIC: Staphylococcus aureus NRS384 (MRSA USA300), broth microdilution, visual reading. Put shortly:
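MRSA USA300 grown 24 h at 37 °C on tryptic soy agar, then adjusted to 5×10^5 CFU/ml in cation-adjusted Mueller-Hinton broth. Compounds serially diluted 64 to 0.5 μg/mL per CLSI broth microdilution; MIC recorded.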

Data set [3] relates to MRSA NRS 385. The data set can be described thus: MIC, Gram-positive panel. As to conditions: Staphylococcus aureus; MRSA NRS 385; read-out: MIC. On the procedure: (§1) Next, the spectrum of antibacterial activity of compounds 144, 148, 149, 151, 155, 158, and 187 was examined against a panel of clinically relevant Gram-positive bacterial pathogens including methicillin-resistant Staphylococcus aureus (MRSA), vancomycin-resistant Staphylococcus aureus (VRSA), vancomycin-resistant Enterococcus faecalis and Enterococcus faecium (VRE), and Streptococcus pneumoniae. Bacterial strains were grown aerobically overnight on tryptone soya agar plates at 37° C. Afterwards, a bacterial solution equivalent to 0.5 McFarland standard was prepared and diluted in cation-adjusted Mueller-Hinton broth (CAMHB) (for staphylococci). Enterococci and Streptococci were diluted in tryptone soya broth (TSB) to achieve a bacterial concentration of about 5×10^5 CFU/mL and seeded in 96-well plates. Compounds and control drugs were added in the first row of 96-well plates and serially diluted with media containing bacteria. Plates were then, incubated aerobically at 37° C. for 18-20 hours (except for S. pneumoniae, which was incubated at 37° C. in presence of 5% CO2 for 18-20 hours).

Data set [4] has as its system VRSA 12. The experiment in a line: MIC, Gram-positive panel. The conditions noted are these: Staphylococcus aureus; VRSA 12; read-out: MIC. On the procedure:
as §1

Data set [5] has as its system Methicillin-resistant S. pneumoniae ATCC 700677. The experiment in a line: MIC, Gram-positive panel. The conditions noted are these: Streptococcus pneumoniae, ATCC700677; Methicillin-resistant S. pneumoniae ATCC 700677; read-out: MIC. On the procedure: as §1
The test system of data set [6] is Methicillin-resistant S. epidermidis NRS101. The experiment in a line: MIC, Gram-positive panel. The conditions noted are these: Staphylococcus epidermidis; Methicillin-resistant S. epidermidis NRS101; read-out: MIC. The protocol: as §1
For data set [7], the system named is Enterococcus faecalis ATCC 51299 (VRE). The data set can be described thus: MIC, Gram-positive panel. As to conditions: Enterococcus faecalis ATCC 51299 (VRE); read-out: MIC. The protocol: as §1
Data set [8] relates to S. aureus NRS 107. The experiment in a line: MIC, Gram-positive panel. As to conditions: Staphylococcus aureus, NRS107; S. aureus NRS 107; read-out: MIC. On the procedure:
as §1

Data set [9] concerns MRSA NRS 119. The data set can be described thus: MIC, Gram-positive panel. The conditions noted are these: Staphylococcus aureus; MRSA NRS 119; read-out: MIC. The protocol: as §1
In data set [10] the test system is S. aureus ATCC 6538. The experiment in a line: MIC, Gram-positive panel. The conditions noted are these: Staphylococcus aureus, ATCC6538; S. aureus ATCC 6538; read-out: MIC. The protocol: as §1
Data set [11] relates to Enterococcus faecium ATCC 700221 (VRE). The experiment in a line: MIC, Gram-positive panel. As to conditions: Enterococcus faecium ATCC 700221 (VRE); read-out: MIC. The protocol:
as §1

The test system of data set [12] is S. pneumoniae ATCC 51916. The data set can be described thus: MIC, Gram-positive panel. The conditions noted are these: Streptococcus pneumoniae, ATCC51916; S. pneumoniae ATCC 51916; read-out: MIC. The protocol: as §1
The subject of data set [13] is MRSA NRS 386. The experiment in a line: MIC, Gram-positive panel. As to conditions: Staphylococcus aureus; MRSA NRS 386; read-out: MIC. The protocol: as §1
Data set [14] has as its system VRSA 10. The data set can be described thus: MIC, Gram-positive panel. As to conditions: Staphylococcus aureus; VRSA 10; read-out: MIC. The protocol: as §1
Data set [15] has as its system MRSA NRS 123. The data set can be described thus: MIC, Gram-positive panel. The conditions noted are these: Staphylococcus aureus; MRSA NRS 123; read-out: MIC. On the procedure:
as §1

Setting [16] is: Staphylococcus aureus, read-out: MIC.

Converted amounts (≈) assume the structure as drawn. Read-outs that look alike come from different tables or passages of the source.

For the compound `C=C1C(=O)O[C@H](C2=CC=CCC2)[C@H]1c1cccc2ccccc12` [Compound 187], the “tolerable concentration as multiple of MIC against MRSA” value in data set [1] lay within 16 to 32 times. Further, the MIC in [2] was 1 µg/mL (≈ 3.31 µM); in data set [2] (setting [16]), 1 to 2 µg/mL (≈ 3.31 to 6.61 µM); in data set [3], 1 µg/mL (≈ 3.31 µM); in data set [4] it was 2 µg/mL (≈ 6.61 µM); in [5] it was 1 µg/mL (≈ 3.31 µM); in data set [6], 0.5 µg/mL (≈ 1.65 µM). Besides, the MIC in data set [7] was > 64 µg/mL; in data set [8] it was 1 µg/mL (≈ 3.31 µM); in data set [9] it was 2 µg/mL (≈ 6.61 µM); in data set [10] it was 1 µg/mL (≈ 3.31 µM); in [11], > 64 µg/mL; in [12] it was 1 µg/mL (≈ 3.31 µM). Moreover, the MIC amounted to 1 µg/mL (≈ 3.31 µM) in data set [13], 1 µg/mL (≈ 3.31 µM) in data set [14] and 2 µg/mL (≈ 6.61 µM) in [15].
In the case of `C=C(C(=O)OC)C(c1cccc2ccccc12)C(O)c1ccccc1` (stereo not drawn) [Compound 144], the “tolerable concentration as multiple of MIC against MRSA” value in data set [1] was in the range of 16 to 32 times. In addition, in [2] (MRSA USA300, Table 1 assay), the “potency compared with control antibiotic” value is listed as “potency similar to the oxazolidinone class of antimicrobial drug linezolid”. Moreover, the MIC was 1 µg/mL (≈ 3.01 µM) in data set [2]; 1 to 2 µg/mL (≈ 3.01 to 6.02 µM) in data set [2] (setting [16]); 1 µg/mL (≈ 3.01 µM) in [3]; 1 µg/mL (≈ 3.01 µM) in data set [4]; 1 µg/mL (≈ 3.01 µM) in data set [5]; 1 µg/mL (≈ 3.01 µM) in data set [6]. The MIC was > 64 µg/mL in data set [7]; 1 µg/mL (≈ 3.01 µM) in data set [8]; 1 µg/mL (≈ 3.01 µM) in [9]; 1 µg/mL (≈ 3.01 µM) in data set [10]; 64 µg/mL (≈ 193 µM) in data set [11]; 1 µg/mL (≈ 3.01 µM) in [12]. The MIC in [13], in [14] and in [15] was 1 µg/mL (≈ 3.01 µM) throughout.

What is called MIC is the least concentration at which growth counts as inhibited.
